“Also recorded” adds a separate entry of the source.
Key:
[1] = test system: IRF-inducible ISG reporter in RAW264.7 cells; test: RAW264.7-ISG interferon reporter cells co-cultured with A20 lymphoma cells; type: cell-based, mouse; details: monotherapy; 50 mg/mL proteins, 1 mg/mL anti-mCD20; 24 hours
Protocol: FIG. 8D: Macrophage:Toledo lymphoma co-cultures were harvested 2 hours into phagocytosis assays in the presence of rituximab ([…]), SIRPα-Fc-CD40L ([…]), or the combination of both agents. Macrophages were isolated by CD11b+ FACS, RNA was prepared, cDNA synthesized, and gene expression (IFNa1, IFNb1, CD80, and CD86) assessed by qRT-PCR. Fold change was calculated using DDCT and values obtained from the housekeeping gene ACTB, and the corresponding values from untreated samples. […] After 2 hours, co-cultures were isolated from tissue culture vessels and were stained with a fluorescently conjugated CD11b antibody to discriminate macrophages. Cells were then assessed by flow cytometry for the co-localization of fluorescent signal from both cells types. […] After 24-hours type I interferon induced luminescence was assessed using a luminometer. The maximum luminescence (RLU) from each experiment was set to 1, and all other samples were normalized accordingly. […]
Additionally, a macrophage reporter system was used to detect activation. […] After 24 hours, culture supernatant was collected and assessed for luciferase activity, which would indicate activation of a type I interferon response in the RAW-ISG reporter cells. […]

[2] = test system: Raji cells; test: In vitro phagocytosis of Raji cells by human macrophages; type: cell-based
Excerpt: To this end, in vitro tumor cell phagocytosis assays were established to determine whether SIRPα-Fc-CD40L enhanced macrophage-mediated phagocytosis of various tumor cell lines both alone and in combination with anti-CD20 antibodies.
Initially, a variety of CD20+ lymphoma (Toledo, Raji, and Ramos) cell lines were co-cultured with human monocyte-derived macrophages to assay the amount of phagocytosis promoted by the SIRPα(CD172a)-Fc-CD40L chimeric protein in the presence or absence of an anti-CD20 antibody.
Such synergistic effect was unexpected.
These experiments used an in vitro phagocytosis assay with human donor macrophages and several human tumor cell lines (e.g., Raji cells, a human Burkitt lymphoma tumor cell line), to test whether SIRPα-Fc-CD40L's blockade of the tumor cell antigen CD47 (“don't eat me signal”) could stimulate phagocytosis, and potentially synergize with the anti-CD20 antibody, Rituximab. FIG. 10A is a cartoon illustrating steps used in this assay.
Co-cultures of tagged Raji cells and macrophages were treated with a variety of chimeric protein and antibody combinations, including control IgGs with an anti-CD20 antibody (Rituximab), an anti-CD47 antibody (CC9, Celgene), the SIRPα(CD172a)-Fc-CD40L chimeric protein, and/or pembrolizumab (an anti-PD-1 antibody; […]/MK 3475, Merck). […] Such synergistic effect was unexpected.

[3] = biological target: recombinant hCD47 and recombinant hCD40 (Homo sapiens, UniProt P25942+Q08722); test: Functional dual ELISA (hCD40 capture, hCD47-His detection); type: binding
[4] = test system: IFNα1, IFNβ1, CD80 and CD86 expression in macrophages; test: qRT-PCR of macrophages sorted from macrophage:Toledo lymphoma co-cultures; type: cell-based, human; design: macrophage activation and type I interferon gene expression: dose or concentration left out as unconfirmed
Protocol: (§1) FIG. 8D: Macrophage:Toledo lymphoma co-cultures were harvested 2 hours into phagocytosis assays in the presence of rituximab ([…]), SIRPα-Fc-CD40L ([…]), or the combination of both agents. Macrophages were isolated by CD11b+ FACS, RNA was prepared, cDNA synthesized, and gene expression (IFNa1, IFNb1, CD80, and CD86) assessed by qRT-PCR. Fold change was calculated using DDCT and values obtained from the housekeeping gene ACTB, and the corresponding values from untreated samples. […] After 2 hours, co-cultures were isolated from tissue culture vessels and were stained with a fluorescently conjugated CD11b antibody to discriminate macrophages. Cells were then assessed by flow cytometry for the co-localization of fluorescent signal from both cells types. Identical assays were set up where macrophages were pre-incubated for 1 hour with 20 μg/mL of a commercially available Fc block cocktail or with 20 μg/mL of a CD40 blocking antibody or with 5 μg/mL of a calreticulin blocking peptide. FIG. 8G: RAW 264.7-Lucia ISG cells were cultured with A20 lymphoma cells in the presence of […] of mSIRPα-Fc-CD40L, recombinant Fc-mCD40L, mSIRPα-Fc, or their combination, 1 mg/mL anti-mCD20, or the combination of mSIRPα-Fc-CD40L and anti-mCD20. After 24-hours type I interferon induced luminescence was assessed using a luminometer. The maximum luminescence (RLU) from each experiment was set to 1, and all other samples were normalized accordingly. Values from repeat experiments are shown.
RNA was prepared from macrophages isolated using fluorescent activated cell sorting (FACS) from SIRPα-Fc-CD40L/Rituximab treated co-cultures macrophages and Toledo lymphoma cells. The RNA was assessed by qRT-PCR for expression of IFNα1 and IFNβ1, and the macrophage activation markers CD80 and CD86.

[5] = test system: tumors; test: In vivo tumor model, SIRPα-Fc-LIGHT with anti-PD-1 (Example 15); design: species or system mice; details: combination with anti-PD-1 antibody
Protocol: The in vivo ability of combinations of the SIRPα-Fc-LIGHT chimeric protein with anti-PD-1 antibodies to target and treat tumors was determined. (FIG. 26A and FIG. 26B) FIG. 26C and FIG. 26D include data relevant to the graphs of FIG. 26A and FIG. 26B.

[6] = test system: human donor red blood cells (RBCs); test: In vitro hemolysis assay, human red blood cells; type: cell-based
Protocol: FIG. 22B is a graph showing RBCs and test agents that were incubated at 37° C. for 24 hours and then the media was assessed at OD490 for changes in absorbance due to hemoglobin being released from lysing RBCs. […] FIG. 22D are graphs showing that peripheral blood was isolated from mice receiving three IP doses (300 μg) of the murine SIRPα-Fc-CD40L surrogate (arrows). Cell populations were assessed by flow cytometry and included CD20+ B cells, CD110+, CD4+/CD11c+, and CD8+/CD11c+ dendritic cells.
However, the in vitro systems used to test this question have significant limitations, including a complete lack of macrophages in the test system.

[7] = test system: Toledo lymphoma cells; test: Phagocytosis of Toledo lymphoma cells by human monocyte derived macrophages (flow cytometry); type: cell-based; details: combination with rituximab
Protocol: as §1
In contrast, phagocytosis-stimulating activity of the combination was not impacted when macrophages were pre-treated with a CD40-blocking antibody (“CD40 Block”).

[8] = test system: tumors; test: In vivo tumor model, SIRPα-Fc-OX40L with checkpoint antibodies (Example 14); design: species or system mice
Protocol: The in vivo ability of combinations of the SIRPα-Fc-OX40L chimeric protein with anti-CTLA-4 antibodies or the SIRPα-Fc-OX40L chimeric protein with anti-PD-1 antibodies to target and treat tumors was determined.

[9] = test system: CT26 tumor; test: CT26 tumor model, order of administration with anti-CTLA-4 or anti-PD-1 (Example 10); type: in vivo, mice
[10] = combination with anti-CTLA-4 antibody
[11] = combination with anti-PD-1 antibody

SIRPα-Fc-CD40L: generic name of the SIRPαECD-Fc-CD40LECD chimeric protein; human or murine version according to the experiment
interferon gene-driven luciferase activity (type I IFN response) [1]: stimulates an increase in interferon gene-driven luciferase activity | synergy in phagocytosis with anti-CD20 antibody ([2]; Fc receptors on the macrophages pre-blocked): synergy was lost | phagocytosis activity by flow cytometry ([2]; combination with an anti-CD20 antibody, among treatment groups): greatest phagocytosis activity | macrophage engulfment (phagocytosis) of tumor cells ([2]; combination with anti-CD20 antibody (Rituximab), listed as SIRPα(CD172a)-Fc-CD40L): most effective; also recorded: effective | rate of tumor cells engulfed by macrophages (phagocytosis index) ([2]; combination with anti-CD20 antibody vs chimeric protein-alone and antibody-alone treatments): greater than the sum | stimulation of phagocytosis ([2]; combination with anti-CD20 antibody, CD40 pre-blocked): remained the same | simultaneous binding of SIRPα-domain to hCD47 and CD40L-domain to hCD40 [3]: simultaneous binding | induction of type I interferon genes ([4]; combination with rituximab): enhanced | macrophage activation and type I interferon gene expression ([4]; monotherapy, 2 hours): induced macrophage activation and the expression of type I interferon genes | rejection of primary tumor [5]: able to reject primary tumor | hemolysis [6]: did not reveal evidence of hemolysis | phagocytosis-stimulating activity ([7]; CALR Block (calreticulin blocking peptide)): unable to reduce | phagocytosis-stimulating activity ([7]; CD40 Block): not impacted | phagocytosis-stimulating activity ([7]; Fc Block): partially inhibited | phagocytosis-stimulating activity ([7]; calreticulin blocking peptide and Fc receptor block together): greatly reduced | rejection of primary tumor ([8]; combination of chimeric protein and antibody): able to reject primary tumor | survival [8, 10]: any survivors by the sixteenth day | tumor size [8, 10]: effective in reducing tumor size | survival [8, 11]: any survivors by the sixteenth day | tumor size [8, 11]: effective in reducing tumor size | treatment outcome (tumor size, survival) ([9]; anti-CTLA-4 antibody administered before the chimeric protein): greatest treatment outcome | treatment outcome (tumor size, survival) ([9]; anti-PD-1 antibody administered with the chimeric protein): greatest treatment outcome | treatment outcome / tumor control ([9]; chimeric protein administered before or after the anti-PD-1 antibody): less great treatment outcome | treatment outcome / tumor control ([9]; chimeric protein administered before the anti-CTLA-4 antibody): less great treatment outcome

Source: patent publication US20210379153A1, “COMBINATION THERAPIES COMPRISING SIRP ALPHA-BASED CHIMERIC PROTEINS” (Shattuck Labs, Inc., priority 2018, published 2021)
